The subject of experiment [1] is PHBPU. The experiment in a line: Pre-emergence herbicidal action against PHBPU. Particulars: dosage 80 g/ha. The experiment is classed as in vivo, Pharbitis purpurea. From the text:
Seeds of monocotyledonous and dicotyledonous weed plants and crop plants are laid out in sandy loam soil in wood-fiber pots and covered with soil. The compounds of the invention, formulated in the form of wettable powders (WP) or as emulsion concentrates (EC), are then applied to the surface of the covering soil in the form of an aqueous suspension or emulsion at a water application rate equivalent to 600 to 800 l/ha, with addition of 0.2% wetting agent. After the treatment, the pots are placed in a greenhouse and kept under good growth conditions for the trial plants. The damage to the test plants is scored visually after a test period of 3 weeks by comparison with untreated controls (herbicidal activity in percent (%): 100% activity=the plants have died, 0% activity=like control plants). […] The tables below illustrate, in an illustrative manner, the post-emergence herbicidal action of the compounds of the invention, the herbicidal activity being stated in percent.

Experiment [2] concerns DIGSA. The experiment in a line: Pre-emergence herbicidal action against DIGSA. The experiment is classed as in vivo, Digitaria sanguinalis. Summed up:
(§1)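 Visual rating at 3 weeks vs untreated pots; 0–100% scale, 100% = plants died. Treatment: aqueous WP/EC spray onto covering soil, 600–800 l/ha, 0.2% wetter, seeds in sandy loam.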

Experiment [3] has as its system ALOMY. Briefly: Pre-emergence herbicidal action against ALOMY. Format: in vivo, Alopecurus myosuroides. The settings on record: 80 g/ha, pre-emergence, scored visually after 3 weeks vs untreated controls (100% = plants have died, 0% = like control plants). The procedure, abridged:
as §1

Experiment [4] relates to MATIN. The experiment in a line: Pre-emergence herbicidal action against MATIN. The experiment is classed as in vivo, Matricaria inodora. The procedure, abridged: as §1
The subject of another experiment is AMARE. Briefly: Pre-emergence herbicidal action against AMARE. Format: in vivo, Amaranthus retroflexus. Summed up: as §1
The test system of experiment [5] is SETVI. Briefly: Pre-emergence herbicidal action against SETVI. The experiment is classed as in vivo, Setaria viridis. Particulars: dosage 80 g/ha. The procedure, abridged:
as §1

The subject of experiment [6] is SETVI. Briefly: Post-emergence herbicidal action against SETVI. The experiment is classed as in vivo, Setaria viridis. The procedure, abridged:
(§2)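 Greenhouse pot plants in sandy loam were sprayed at the one-leaf stage, 2 to 3 weeks after sowing, with WP or EC formulations as aqueous suspension or emulsion (600 to 800 l/ha water, 0.2% wetting agent). About 3 weeks later, damage was scored visually against untreated controls as % action (100% = dead, 0% = like control).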

Experiment [7] concerns MATIN. Briefly: Post-emergence herbicidal action against MATIN. Format: in vivo, Matricaria inodora. Summed up: as §2
The test system of experiment [8] is VIOTR. The experiment in a line: Post-emergence herbicidal action against VIOTR. Format: in vivo, Viola tricolor. The settings on record: 20 g/ha. The procedure, abridged: as §2
Experiment [9] deals with ECHCG. The experiment in a line: Post-emergence herbicidal action against ECHCG. The experiment is classed as in vivo, Echinochloa crus-galli. Particulars: dosage 20 g/ha. The procedure, abridged: as §2
The test system of experiment [10] is ABUTH. The experiment in a line: Post-emergence herbicidal action against ABUTH. The settings on record: visual assessment about 3 weeks after treatment vs untreated controls. Format: in vivo, Abutilon theophrasti. Summed up:
as §2

Experiment [11] relates to VIOTR. The experiment in a line: Pre-emergence herbicidal action against VIOTR. The experiment is classed as in vivo, Viola tricolor. Summed up: as §1
For experiment [12], the system named is ABUTH. The experiment in a line: Pre-emergence herbicidal action against ABUTH. Format: in vivo, Abutilon theophrasti. The procedure, abridged: as §1
Experiment [13] has as its system VERPE. The experiment in a line: Pre-emergence herbicidal action against VERPE. Format: in vivo, Veronica persica. Summed up: as §1
Experiment [14] deals with PHBPU. Briefly: Post-emergence herbicidal action against PHBPU. The experiment is classed as in vivo, Pharbitis purpurea. Particulars: dosage 20 g/ha. The procedure, abridged: as §2
Experiment [15] deals with ECHCG. The experiment in a line: Pre-emergence herbicidal action against ECHCG. The experiment is classed as in vivo, Echinochloa crus-galli. The procedure, abridged:
as §1

The subject of experiment [16] is ALOMY. Briefly: Post-emergence herbicidal action against ALOMY. Format: in vivo, Alopecurus myosuroides. The settings on record: visual assessment about 3 weeks after treatment vs untreated controls. Summed up:
as §2

The subject of a further experiment is AVEFA. Briefly: Pre-emergence herbicidal action against AVEFA. The experiment is classed as in vivo, Avena fatua. Particulars: 80 g/ha, pre-emergence. Summed up:
as §1

In experiment [17] the test system is DIGSA. The experiment in a line: Post-emergence herbicidal action against DIGSA. Format: in vivo, Digitaria sanguinalis. The procedure, abridged: as §2
Experiment [18] relates to VERPE. Briefly: Post-emergence herbicidal action against VERPE. The experiment is classed as in vivo, Veronica persica. Particulars: 20 g/ha. Summed up: as §2
Setting [19] is: 20 g/ha, scored visually after 3 weeks vs untreated controls, 100% = plants have died, 0% = like control plants.
Setting [20] is: 80 g/ha, scored visually after 3 weeks vs untreated controls (100% = plants have died, 0% = like control plants).

For `Cn1nnnc1NC(=O)c1ccc(C(F)(F)F)c(C(=O)NCC2CC2)c1Br` [Example 1-210], in the experiment with PHBPU [1], the “Pre-emergence action against PHBPU in %” value was 80%. Moreover, the “Pre-emergence action against DIGSA in %” value with DIGSA [2] (dosage 20 g/ha) and in the experiment on DIGSA [2] (dosage 80 g/ha) was 100% throughout. Besides, the “Pre-emergence action against ALOMY (herbicidal activity)” value in the experiment on ALOMY [3] is listed as 80%. For the same compound, the “Pre-emergence action against MATIN in %” value with MATIN [4] (dosage 20 g/ha) and in the experiment with MATIN [4] (dosage 80 g/ha) was 100% throughout. The “Pre-emergence action against AMARE in %” value in the experiment with AMARE (setting [19]) and in the experiment on AMARE (setting [20]) was 100% in each case. Besides, the “Pre-emergence action against SETVI in %” value with SETVI [5] is on record as 100%. For the same compound, the “Post-emergence action against SETVI in %” value in the experiment on SETVI [6] (dosage 5 g/ha) was determined as 80%; in the experiment with SETVI [6] (dosage 20 g/ha), 90%. Besides, the results for the “Post-emergence action against MATIN in %” value in the experiment with MATIN [7] (dosage 5 g/ha) and with MATIN [7] (dosage 20 g/ha) were 80% and 90%, respectively. Also, the “Post-emergence action against VIOTR in %” value in the experiment on VIOTR [8] was determined as 90%. Also, in the experiment on ECHCG [9], the “Post-emergence action against ECHCG in %” value is recorded as 80%. The entries for the “Post-emergence action against ABUTH in %” value in the experiment on ABUTH [10] (dosage 5 g/ha) and in the experiment with ABUTH [10] (dosage 20 g/ha) were 80% and 90%, respectively. Further, the “Pre-emergence action against VIOTR in %” value in the experiment on VIOTR [11] (dosage 20 g/ha) and in the experiment on VIOTR [11] (dosage 80 g/ha) was 100% throughout. Further, in the experiment with ABUTH [12] (setting [20]), the “Pre-emergence action against ABUTH (herbicidal activity)” value amounted to 100%. In addition, the “Pre-emergence action against ABUTH (herbicidal activity in percent)” value in the experiment with ABUTH [12] (dosage 20 g/ha, scored visually after 3 weeks vs untreated controls, 100% = plants have died, 0% = like control plants) came to 100%. Besides, in the experiment with VERPE [13] (dosage 80 g/ha), the “Pre-emergence action against VERPE in %” value came to 80%. For the same compound, the “Post-emergence action against PHBPU in %” value with PHBPU [14] is on record as 100%. Moreover, the “Pre-emergence action against ECHCG in %” value in the experiment on ECHCG [15] (20 g/ha) is listed as 80%; in the experiment on ECHCG [15] (80 g/ha) it was 100%. The “Post-emergence action against ALOMY in %” value with ALOMY [16] (dosage 5 g/ha) came out at 80%; with ALOMY [16] (dosage 20 g/ha), 100%. Moreover, the “Pre-emergence action against AVEFA in %” value in the experiment with AVEFA came to 90%. Also, the “Post-emergence action against DIGSA in %” value with DIGSA [17] (5 g/ha) stood at 80%. Besides, the “Post-emergence action against DIGSA” value in the experiment on DIGSA [17] (20 g/ha) was 90%.
Consider `CCn1nnnc1NC(=O)c1ccc(C(F)(F)F)c(C(=O)NCC2CCCO2)c1C` (stereo not drawn) [Example 2-37], for which the “Post-emergence action against VERPE in %” value with VERPE [18] amounted to 80%. Besides, the “Pre-emergence action against PHBPU in %” value with PHBPU [1] is 80%. Moreover, the “Pre-emergence action against DIGSA in %” value in the experiment on DIGSA [2] (dosage 80 g/ha) is reported as 100%. Moreover, in the experiment on ALOMY [3], the “Pre-emergence action against ALOMY (herbicidal activity)” value is 90%. Moreover, the “Pre-emergence action against AMARE in %” value in the experiment with AMARE (setting [19]) is given as 90%; in the experiment on AMARE (setting [20]) it was 100%. In addition, the “Pre-emergence action against SETVI in %” value with SETVI [5] amounted to 100%. Moreover, the “Post-emergence action against ECHCG in %” value in the experiment with ECHCG [9] turned out to be 80%. Besides, the “Pre-emergence action against VIOTR in %” value with VIOTR [11] (dosage 80 g/ha) was 100%. The “Pre-emergence action against VERPE in %” value in the experiment with VERPE [13] (dosage 20 g/ha) and in the experiment with VERPE [13] (dosage 80 g/ha) was 80% in each case. Moreover, the “Pre-emergence action against ECHCG in %” value with ECHCG [15] (80 g/ha) was found to be 80%.

The values above are taken from US12655116B2, “Substituted isophthalic acid diamides” (Bayer Aktiengesellschaft, priority 2020, dated 2026).
